The values that follow come from patent US5420276A, “Analogs of oxetanyl purines and pyrimidines” (Abbott Laboratories, priority 1993, dated 1995).

Data set [1] concerns Varicella-Zoster Virus (VZV) clinical isolate DM625. The data set can be described thus: VZV plaque reduction assay. The class given is cell-based. To be noted: Human alphaherpesvirus 3, 144 h, VZV in HFF; for EC50: minimum concentration required to inhibit plaque formation by 50%, read-out: MIC50. As to the method:
The compounds of the invention were evaluated for selective activity against varicella zoster virus (VCV) utilizing a plaque reduction assay procedure. The challenge virus was a clinical isolate designated DM625, obtained from Dr. Richard Whitley of the University of Alabama Hospitals, Birmingham, Ala. The virus had been passaged and titrated in cultures of human foreskin fibroblasts (HFF).
(§1) For the plaque reduction assay, sixth to twelfth passage human foreskin fibroblasts were seeded in wells of 12-well tissue culture plates and incubated at 37° C. in a humidified atmosphere containing 2% CO2 in air. Subconfluent HFF were rinsed with MEM and exposed to 0.5 ml/well of a suspension of VZV diluted in MEM+2% FBS for 2 hours at 37° C. Following the virus adsorption period, the inocula were removed and the infected cell layers were rinsed with MEM. Triplicate VZV-infected cell culture wells were treated with 1.0 ml of each concentration of test compound (in MEM+2% FBS). Six untreated virus-infected cell cultures and triplicate untreated uninfected cell cultures were fed with 1.0 ml of MEM+2% FBS to serve as controls. Wells containing uninfected HFF were treated with each concentration of test compound to monitor the test compound cytotoxicity. The 12-well plates were incubated at 37° C. in the CO2 incubator. At 48 hours post-virus infection (p.i.), fluids in all plate wells were replaced with fresh test compound and/or culture medium.
Six days p.i., the VZV plaques were counted (unstained, low magnification).The effect of each concentration of test compound on plaque formation was determined by comparing the mean number of plaques in the replicate test compound-treated cultures with the mean plaque counts of the untreated virus control cultures.
The MIC50 value is the minimum concentration of test Compound required to inhibit plaque formation by 50%.

Data set [2] can be described thus: MTT test compound cytotoxicity in human foreskin fibroblasts. In kind it is cell-based. To be noted: hff cells, read-out: MTT assay (Percent of control). The procedure: as §1
The test compound cytotoxicity control cultures were examined microscopically for gross morphologic changes, then treated with MTT and 30% SDS. The blue color of the MTT formazan was measured spectrophotometrically at 570 nm. Test compound cytotoxicity was determined by comparing the absorbance (O.D.) of each test compound control with the mean O.D. of the cell control cultures and expressed as percent of control.

A further data set relates to HSV-1 (E-377). Briefly: CPE inhibition assay (MTT), HSV-1 (E-377) in Vero cells. Particulars: Human alphaherpesvirus 1, inhibited CPE by 50%. The class given is cell-based, herpes simplex virus type 1. As to the method: (§2) Vero cells were pregrown as monolayers in wells of COSTAR 96-well tissue culture plates using suitable cell culture media. Stock viruses were pretitered according to the method of Reed and Muench (Amer. J. Hyg. 27 493 (1938)) and diluted in cell culture medium to yield 32 CCID50 (cell culture infectious dose, 50%) units per 0.1 mL. Antiviral assays were designed to test six concentrations of each compound, from cytotoxic to noncytotoxic levels, in triplicate against each of the challenge viruses in microtiter plate wells containing cell monolayers. To each of the replicate cell cultures were added 0.1 mL of the test-compound solution and 0.1 mL of virus suspension. Two compounds were evaluated per plate. The following controls were included:
(§3) (1) Cell controls containing cells+medium;
(§4) (2) Untreated, virus-infected cell controls;
(§5) (3) Test-compound cytotoxicity controls containing uninfected, test-compound treated cells;
(§6) (4) Test-compound color controls-test-compound+medium (no cells); and
(§7) (5) Reagent (experiment medium) controls-medium only (no cells).
(§8) The covered plates were incubated at 37° C. in a humidified atmosphere containing 2% CO2. When cytopathogenic effect (CPE) in untreated virus control wells reached 100%, 20 μL of 3-(4,5-dimethyl-thiazol-2-yl)-2,5-diphenyl tetrazolium bromide (MTT) (dissolved in PBS at 5 mg/mL) was pipetted into each of the plate wells. The plates were incubated at 37° C. for six hours; then 40 μL of 30% SDS (in 0.02N HCl) was added to each well. After overnight incubation at 37° C., the blue color or the MTT formazan was measured spectrophotometrically at 570 nm. The optical density (OD) value of each culture is a function of the amount of formazan produced which is proportional to the number of viable cells. A computer program was utilized to calculate the percent (CPE) reciprocal of % CPE reduction) of the virus-infected wells and % cell viability of the uninfected test-compound control wells.
The IC50 value is the minimum test-compound concentration (μg/mL) that inhibited CPE by 50% calculated by using a regression analysis program for semilog curve fitting. The TC25 value is the minimum test-compound concentration (μg/mL) that reduced cell viability by 25%.

Another data set concerns HSV-2 (MS). The data set can be described thus: CPE inhibition assay (MTT), HSV-2 (MS) in Vero cells. The class given is cell-based, herpes simplex virus type 2. Particulars: Human alphaherpesvirus 2, inhibited CPE by 50%. The procedure:
as §2, §3, §4, §5, §6, §7
as §8, with “control wells. […]” for “control wells.”

The next data set concerns Vero cells. The data set can be described thus: MTT cell viability of uninfected test-compound control Vero cells. In kind it is cell-based, African green monkey. To be noted: reduced cell viability by 25%, HSV-1 (E-377) line. The procedure: as §2, §5
The covered plates were incubated at 37° C. in a humidified atmosphere containing 2% CO2. When cytopathogenic effect (CPE) in untreated virus control wells reached 100%, 20 μL of 3-(4,5-dimethyl-thiazol-2-yl)-2,5-diphenyl tetrazolium bromide (MTT) (dissolved in PBS at 5 mg/mL) was pipetted into each of the plate wells. The plates were incubated at 37° C. for six hours; then 40 μL of 30% SDS (in 0.02N HCl) was added to each well. After overnight incubation at 37° C., the blue color or the MTT formazan was measured spectrophotometrically at 570 nm. […]

Data set [3] concerns Herpes Simplex Virus Type 1. The data set can be described thus: Neutral red dye uptake assay for antiviral activity, HSV-1 in Vero cells. In kind it is cell-based. Particulars: Human alphaherpesvirus 1, HSV-1, Vero, concentration at which 50% CPE would be observed, read-out: MIC50. As to the method: (§9) Vero cell monolayers were harvested by trypsinization. The number of viable cells per ml. was determined by staining an aliquot with trypan blue and counting in a hemocytometer. Cell densities were adjusted in growth medium to contain 4×10^5 cells/mi. 96-well sterile tissue culture plates were seeded with 100 μl/well of the adjusted cell suspensions, i.e., 4×10^4 cells/well. Seeded plates were incubated overnight at 37° C. with CO2.
(§10) After overnight incubation, monolayers were approximately confluent. The growth medium was removed and the monolayers in each cell were infected with 100 μl of virus diluted in maintenance medium to produce approximately 90% cytopathogenic effect (CPE) after 2 to 3 days incubation. The virus was allowed to adsorb for 1 hour at 37° C. with 4 to 6% CO2. Controls for cell growth were overlayed with virus-free maintenance medium. The maintenance medium containing residual virus was removed.
(§11) The test compounds were dissolved and/or diluted in maintenance medium to the concentration desired for testing and were added to the wells of the plate. Aliquots (100 μl ) of each concentration were added to wells in replicate (duplicate or triplicate). Controls for virus activity were overlayed with drug-free maintenance medium. Replicate wells containing only maintenance medium served as controls for background absorbance levels.
After incubation, the medium was removed from all the wells. 100 μl of neutral red solution was added to each well and the plate was incubated at 37° C. without CO2 for 2 hours. After the 2 hour incubation, the excess neutral red solution was removed. […]
The neutral red stain taken up by the viable cells was extracted by adding 100 μl/well of acidified methanol, pH 1.0. […] The amount of neutral red stain extracted into the methanol was quantified by determining the absorbance at a wavelength of 540 nm.
The percent CPE in virus controls was determined by the following formula: [formula]
The percent CPE in cells infected with virus and treated with the test compound was determined by the following formula: [formula] […]

A further data set can be described thus: in vitro. The class given is cell-based, African green monkey. To be noted: monkey, vero cells. As to the method: as §9, §10, §11
After incubation, the medium was removed from all the wells. 100 μl of neutral red solution was added to each well and the plate was incubated at 37° C. without CO2 for 2 hours. After the 2 hour incubation, the excess neutral red solution was removed. The plates were washed with 100 μl/well of PBS, pH 7.2 and then the PBS was removed.
The neutral red stain taken up by the viable cells was extracted by adding 100 μl/well of acidified methanol, pH 1.0. (The acidified methanol fixed the cells to the well). The plate was allowed to stand at room temperature for at least 15 minutes to allow for maximum extraction. The amount of neutral red stain extracted into the methanol was quantified by determining the absorbance at a wavelength of 540 nm. […]

Converted amounts (≈) assume the structure as drawn. A value given as a limit tells only on which side of the number the result lay.

Turning to `O=c1[nH]c(=O)n([C@@H]2O[C@H](CO)[C@H]2CO)cc1I` [Example 42, 1-([2'R, 3'R, 4'S]-3',4'-Bis(hydroxymethyl)-2'-oxetanyl)-5-iodouracil], in data set [1], 0.032 µM produced 7% inhibition; 0.1 µM produced 2% inhibition; the inhibition (as a rule, the drop in the measured response relative to a control, in per cent) at 0.32 µM came to 54%; the inhibition at 1 µM is 76%. In data set [1], this compound showed an inhibition at 3.2 µM of 98%, an inhibition at 10 µM of 99%, an inhibition at 32 µM of 100% and an inhibition at 100 µM of 100%. Moreover, in data set [1], the inhibition at 320 µM was determined as 99.6%, the inhibition at 1000 µM stood at 100% and the EC50 came to 0.1 µg/mL (≈ 0.282 µM). For the same compound, in data set [2], the viability at 1 µM was 93%, the viability at 3.2 µM stood at 94%, the viability at 10 µM came out at 80% and the viability at 32 µM was found to be 88%. For the same compound, in data set [2], the viability at 100 µM turned out to be 82%, the viability at 320 µM came out at 79% and the viability at 1000 µM was determined as 68%. For the same compound, the IC50 (commonly the concentration that inhibits the measured activity by half) with HSV-1 (E-377) is 0.05 µg/mL (≈ 0.141 µM). The compound also registered an IC50 in the data set on HSV-2 (MS) of 35.3 µg/mL (≈ 99.7 µM).

With `O=c1[nH]c(=O)n([C@@H]2O[C@H](CO)[C@H]2CO)cc1Br` [Example 43, 1-([2'R, 3'R, 4'S]-3',4'-Bis(hydroxymethyl)-2'-oxetanyl)-5-bromouracil], in data set [1], testing at 0.032 µM gave an inhibition of 1%, the inhibition at 0.1 µM is 12%, the inhibition at 0.32 µM was 41% and testing at 1 µM gave an inhibition of 75%. In data set [1], this compound came in with an inhibition at 3.2 µM of 98%, an inhibition at 10 µM of 99%, an inhibition at 32 µM of 99% and an inhibition at 100 µM of 100%. Moreover, in data set [1], the inhibition at 320 µM came to 100%, the inhibition at 1000 µM was 100% and the EC50 turned out to be 0.17 µg/mL (≈ 0.554 µM). In addition, in data set [2] (0.032 μM), the viability at 0.032 µM was 100%. In addition, in data set [2], the viability at 0.1 µM was 100%, the viability at 0.32 µM came out at 96%, the viability at 1 µM is 100% and the viability at 3.2 µM was determined as 93%. For the same compound, in data set [2], the viability at 10 µM is 99%, the viability at 32 µM amounted to 93%, the viability at 100 µM came to 100% and the viability at 320 µM is 88%. Further, the viability at 1000 µM in data set [2] was found to be 82%. The compound also registered an IC50 in the data set on HSV-1 (E-377) of 0.7 µg/mL (≈ 2.28 µM). This compound also displayed an IC50 in the data set on HSV-2 (MS) of 141 µg/mL (≈ 459 µM).

In data set [1] (0.0032 μM), `O=c1[nH]c(=O)n([C@@H]2O[C@H](CO)[C@H]2CO)cc1C=CI` [Example 49, 1([2'R, 3'R, 4'S]-3',4'-Bis(hydroxymethyl)-2'-oxetanyl)-5-(2-iodo-1-vinyl)uracil] registered an inhibition at 0.0032 µM of 18%. In data set [1] (0.01 μM), this compound had an inhibition at 0.01 µM of 49%. In data set [1], this compound gave an inhibition at 0.032 µM of 97%, an inhibition at 0.1 µM of 98%, an inhibition at 0.32 µM of 98% and an inhibition at 1 µM of 99%. Moreover, the EC50 in data set [1] came to 0.01 µg/mL (≈ 0.0263 µM). Moreover, in data set [2], the viability at 0.1 µM came to 100%, the viability at 0.32 µM stood at 100% and the viability at 1 µM amounted to 100%. It took 0.67 µg/mL (≈ 1.76 µM) to reach half-maximal inhibition in the data set on HSV-1 (E-377) (IC50). Moreover, in the data set with Vero cells, the TC25 was above 380 µg/mL.

Turning to `C=Cc1cn([C@@H]2O[C@H](CO)[C@H]2CO)c(=O)[nH]c1=O` [Example 61, 1-([2'R, 3'R, 4'S]-3',4'-Bis(hydroxymethyl)-2'-oxetanyl)-5-vinyluracil], in data set [3], the EC50 stood at 0.02 µg/mL (≈ 0.0787 µM). Further, the CC50 (in general, the concentration giving 50% cytotoxicity) in the data set “in vitro” was above 1000 µg/mL. The compound further had an IC50 in the data set with HSV-2 (MS) of 6.3 µg/mL (≈ 24.8 µM).
